According to PubChem BioAssay (NCI):
Values joined by “and” are separate entries in the source; they are usually repeats but may differ in a detail not shown here. Identical values can stand only once.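 96-well plates; 48 h exposure; 5 concentrations. Endpoints by linear interpolation between flanking doses. Not reached: highest tested concentration assigned. Here, GI50 denotes the concentration required for 50% inhibition of growth. TGI: concentration producing complete growth inhibition.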

What was measured:
Experiment in all cases: NCI tumour cell line growth inhibition, 48 h
[1] = system: 786-0 renal
[2] = system: HCC-2998 colon
[3] = system: HCT-116 colon
[4] = system: HCT-15 colon
[5] = system: NCI-H460 lung
[6] = system: SK-MEL-2 melanoma
[7] = system: SK-MEL-28 melanoma
[8] = system: SN12C renal
[9] = system: UACC-62 melanoma
[10] = system: UO-31 renal

| SMILES | GI50 [1] | TGI [1] | GI50 [2] | TGI [2] | GI50 [3] | TGI [3] | GI50 [4] | TGI [4] | GI50 [5] | TGI [5] | GI50 [6] | TGI [6] | GI50 [7] | TGI [7] | GI50 [8] | TGI [8] | GI50 [9] | TGI [9] | GI50 [10] | TGI [10] |
| --- | --- | --- | --- | --- | --- | --- | --- | --- | --- | --- | --- | --- | --- | --- | --- | --- | --- | --- | --- | --- |
| CCCCCCCCCCCCCC1=NC(C)(C)CN1C(C)C | 1.72 µM | 3.13 µM | 1.41 µM | 2.74 µM | 1.38 µM | 2.68 µM | 1.32 µM | 2.59 µM | 1.89 µM | 3.3 µM | 1.88 µM | 3.39 µM | 1.74 µM | 3.11 µM | 1.59 µM | 2.98 µM | 1.74 µM | 3.2 µM | 1.39 µM | 2.69 µM |
| CCN(CC)CCC(CNc1ccnc2cc(Cl)ccc12)c1ccc(OC)cc1 (stereo not given) | 11.9 µM and 3.46 µM | 25.8 µM and 11.8 µM | 3.5 µM and 2.44 µM | 16.2 µM and 6.32 µM | 5.15 µM and 1.87 µM | 24.7 µM and 14.4 µM | 3.06 µM and 3.51 µM | 12.3 µM and 16.5 µM | 11.1 µM and 4.91 µM | 25.6 µM and 24.7 µM | 15.4 µM and 2.02 µM | 33.1 µM and 4.07 µM | 1.75 µM and 1.87 µM | 3.4 µM and 3.42 µM | 12.9 µM and 11.4 µM | 34.3 µM and 37.8 µM | 2.31 µM and 1.86 µM | 5.02 µM and 4.01 µM | 1.54 µM and 1.88 µM | 4.35 µM and 11.6 µM |
| N#CC(=C1C=CC(=NO)C=C1)c1ccccc1 | 1.69 µM | 9.91 µM | 4.61 µM | 15 µM | 0.272 µM | 0.794 µM | 2.22 µM | 12.3 µM | 1.3 µM | 6.11 µM | 2.14 µM | 6.77 µM | 8.71 µM | 27.5 µM | 2.39 µM | 8.41 µM | 1.49 µM | 7.41 µM | 3.45 µM | 19 µM |
| CN(C)N=Nc1ccc(NC=O)cc1 | – | > 100 µM | – | > 100 µM | – | > 100 µM | – | > 100 µM | – | > 100 µM | – | > 100 µM | – | > 100 µM | – | > 100 µM | – | > 100 µM | – | > 100 µM |
| O=C1c2cccc(NCCCNCCO)c2C(=O)c2cccc(NCCCNCCO)c21 | – | 10.1 µM and 5.84 µM | – | 2.4 µM and 2.13 µM | – | 4.9 µM | – | 19.8 µM and 23.3 µM | – | 4 µM and 4.23 µM | – | 3.47 µM and 3.42 µM | – | 3.99 µM and 3.84 µM | – | 6 µM and 5.31 µM | – | 3.25 µM and 4.33 µM | – | 22.2 µM and 21.4 µM |
| O=C(OC(CNc1cc(=O)n(Cc2ccccc2)c(=O)n1Cc1ccccc1)CN1CCCC1)c1ccccc1 (stereo not given) | > 100 µM | > 100 µM | > 100 µM | > 100 µM | 56.8 µM | > 100 µM | > 100 µM | > 100 µM | > 100 µM | > 100 µM | > 100 µM | > 100 µM | > 100 µM | > 100 µM | > 100 µM | > 100 µM | 89.4 µM | > 100 µM | > 100 µM | > 100 µM |
| O=C(/C=C/c1ccccc1O)c1ccccc1O | – | > 100 µM | – | > 100 µM | – | > 100 µM | – | > 100 µM | – | > 100 µM | – | > 100 µM | – | > 100 µM | – | > 100 µM | – | > 100 µM | – | > 100 µM |
| CC(C)CCN1c2nc(Nc3cc(F)c(O)c(F)c3)ncc2N(C)C(=O)C1C (stereo not given) | 7.09 µM | 52.9 µM | 3.54 µM | 17.1 µM | 4.37 µM | 30.1 µM | 3.5 µM | > 49.1 µM | 3.91 µM | 17 µM | 3.14 µM | 15.2 µM | 10.9 µM | > 95.8 µM | 4.9 µM | > 91.6 µM | 4.75 µM | 23.8 µM | 0.939 µM | 16.8 µM |
| Cn1nc(N)c2cc([C@@H]3Nc4ccc5[nH]ncc5c4[C@H]4C5CCC(C5)[C@@H]34)ccc21 (stereo not given in full) | 0.586 µM | 18.1 µM | 1.5 µM | 13.4 µM | 0.448 µM | 13.9 µM | 0.425 µM | 14 µM | 0.402 µM | 11.6 µM | 11.1 µM | 39.4 µM | 4.35 µM | 29.1 µM | 0.612 µM | 21.2 µM | 0.425 µM | 17.7 µM | 0.831 µM | 40.8 µM |
| CCC(C)n1ncn(-c2ccc(N3CCN(c4ccc(OCC5COC(Cn6cncn6)(c6ccc(Cl)cc6Cl)O5)cc4)CC3)cc2)c1=O (stereo not given) | 0.559 µM | 32.7 µM | 84.1 µM | > 100 µM | 21.6 µM | > 100 µM | 15.3 µM | > 100 µM | 9.62 µM | > 100 µM | 13.8 µM | 68.9 µM | > 100 µM | > 100 µM | > 100 µM | > 100 µM | 17.6 µM | > 100 µM | 30 µM | > 100 µM |
| O=C(Nc1ccc(Cl)cc1F)c1ccccc1O | 3.44 µM | > 100 µM | 3.07 µM | 13.1 µM | 3.15 µM | 11.3 µM | 1.92 µM | 14.2 µM | 3.21 µM | 19.7 µM | 2.3 µM | 6.59 µM | 3.9 µM | 21.6 µM | 2.24 µM | 8.71 µM | 2.08 µM | 9.24 µM | 1.25 µM | 6.65 µM |
| C=C(c1nc2ccc(Cl)cc2[nH]c1=O)C(O)c1ccc(C(O)C(=O)c2nc3ccc(Cl)cc3[nH]c2=O)cc1 (stereo not given) | – | > 100 µM | – | > 100 µM | – | > 100 µM | – | > 100 µM | – | > 100 µM | – | > 100 µM | – | > 100 µM | – | > 100 µM | – | > 100 µM | – | > 100 µM |
| CCn1c(-c2nonc2N)nc2c(C#CC(C)(C)O)nc(OC[C@H](N)c3ccccc3)cc21 | 1.91 µM | 5.43 µM | 3.74 µM | 7.59 µM | 3.55 µM | 6.99 µM | 2.53 µM | 6.73 µM | 2.76 µM | 6.31 µM | 4.12 µM | 8.24 µM | 4.75 µM | 8.56 µM | 3.67 µM | 7.38 µM | 4.24 µM | 8.08 µM | 2.91 µM | 6.83 µM |
